Patent publication US10647598B2, “Antimicrobial and algicidal agent for cooling water system” (KURITA WATER INDUSTRIES LTD., priority 2013, dated 2020)

What was measured:
Algae B = experiment: Test tube algicidal test on algae B sampled from cooling tower B; type: cell-based, green algae, containing blue-green algae and diatoms; conditions: visual inspection after 3 days at north-side window; CSA and algicidal agent amounts per example as in Table 1
Procedure: (§1) A test water system containing algae was prepared as described below.
(§2) Secondary treated water obtained by filtrating sewage using a filter having a pore diameter of 0.1 μm was received in a beaker having a volume of 1 L, and to this secondary treated water, 1 g of algae sampled from each of cooling towers A, B, and C in which an antimicrobial treatment was performed using a chlorosulfamic acid was added. Algae A sampled from the cooling tower A were diatoms and contained green algae. Algae B sampled from the cooling tower B were primarily formed of green algae and contained blue-green algae and diatoms. Algae C sampled from the cooling tower C were primarily formed of blue-green algae and contained green algae and diatoms.
(§3) After being raveled and sufficiently dispersed in the beaker, the algae A, B, and C were each dispensed into test tubes.
(§4) In Examples 1 to 5 and Comparative Examples 8 to 11 and 13 to 16, a chlorosulfamic acid (abbreviated as “CSA”, and the addition amount represents the residual chlorine concentration) and one of 5-chloro-2-methyl-4-isothiazolone-3-one (abbreviated as “MIT”), 2,2-dibromo-3-nitrilopropion amide (abbreviated as “DBNPA”), and 2-bromo-2-nitro-1,3-propanediol (abbreviated as “BNP) were added to each test tube so as to have predetermined concentrations shown in Table 1. In Comparative Example 6, MIT was only added. In Comparative Example 7, DBNPA was only added. In Comparative Example 12, BNP was only added. In Comparative Example 17, no chemical agents were added. Subsequently, after the test tubes were left for 3 days at a north-side window so as not to be exposed to direct sunlight, the conditions of the algae were observed by visual inspection and evaluated in accordance with the following criteria.
(§5) <Evaluation Criteria> • −: Reduction (death) of algae is apparently observed from the start of the test. • ±: Condition is the same as that at the start of the test. • +: Slight increase of algae is observed as compared to the condition at the start of the test. • ++: Apparent increase of algae is observed as compared to the condition at the start of the test. • +++: Significant increase of algae is observed as compared to the condition at the start of the test.

Algae C = experiment: Test tube algicidal test on algae C sampled from cooling tower C; type: cell-based, blue-green algae, containing green algae and diatoms; set-up: key to the marks not given beside the values; conditions: visual inspection after 3 days at north-side window; CSA and algicidal agent amounts per example as in Table 1
Procedure: as §1, §2, §3, §4, §5

algae A to C = experiment: Test tube algicidal test, overall assessment; type: cell-based; conditions: Table 1, algae A to C, 3 days
Procedure: as §1, §2, §3
In Examples 1 to 5 and Comparative Examples 8 to 11 and 13 to 16, a chlorosulfamic acid (abbreviated as “CSA”, and the addition amount represents the residual chlorine concentration) and one of 5-chloro-2-methyl-4-isothiazolone-3-one (abbreviated as “MIT”), 2,2-dibromo-3-nitrilopropion amide (abbreviated as “DBNPA”), and 2-bromo-2-nitro-1,3-propanediol (abbreviated as “BNP) were added to each test tube so as to have predetermined concentrations shown in Table 1. In Comparative Example 6, MIT was only added. In Comparative Example 7, DBNPA was only added. In Comparative Example 12, BNP was only added. In Comparative Example 17, no chemical agents were added. Subsequently, after the test tubes were left for 3 days at a north-side window so as not to be exposed to direct sunlight, the conditions of the algae were observed by visual inspection and evaluated in accordance with the following criteria. […]

Algae A = experiment: Test tube algicidal test on algae A sampled from cooling tower A; type: cell-based, diatoms, containing green algae; set-up: key to the marks not given beside the values; conditions: visual inspection after 3 days at north-side window; CSA and algicidal agent amounts per example as in Table 1
Procedure: as §1, §2, §3, §4, §5

| SMILES | Evaluation Results Algae B (Algae B) | Evaluation Results Algae C (Algae C) | Algicidal effect, assessment in words (algae A to C) | Evaluation Results Algae A (Algae A) |
| --- | --- | --- | --- | --- |
| O=S(=O)(O)NCl [compound 5, chlorosulfamic acid] | + | ++ | a sufficient effect also cannot be obtained | +++ |
| O=S(=O)(O)NCl [compound 3, chlorosulfamic acid] | ++ | +++ | – | +++ |
| O=S(=O)(O)NCl [compound 4, chlorosulfamic acid] | + | ++ | a sufficient effect also cannot be obtained | +++ |
| O=S(=O)(O)NCl [compound 2, chlorosulfamic acid] | ++ | +++ | – | +++ |
| Cn1sc(Cl)cc1=O [Comparative Example 6, 5-chloro-2-methyl-4-isothiazolone-3-one] | + | +++ | a sufficient effect cannot be obtained | ++ |
| O=[N+]([O-])C(Br)(CO)CO [Comparative Example 12, 2-bromo-2-nitro-1,3-propanediol] | ++ | +++ | – | ++ |
| N#CC(Br)(Br)C(N)=O [Comparative Example 7, 2,2-dibromo-3-nitrilopropion amide] | + | +++ | – | ++ |
| O=S(=O)(O)NCl [Comparative Example 1, chlorosulfamic acid] | ++ | +++ | – | +++ |
